In US8207172B2 (Bayer Intellectual Property GmbH, priority 2004, dated 2012):
Where a name gives a salt, the structure may show the parent alone.

Tests used:
[1] = system: BT474 (human breast carcinoma); test: In vitro tumor cell proliferation assay (Cell Titer-Glo luminescent cell viability), BT474; format: cell-based; details: BT-474, 72 h, BT474 cells, 72 hours of drug exposure, ATP luminescence readout, read-out: IC50, anti-proliferative activity (inhibition of cell proliferation)
From the text: (§1) In vitro Tumor Cell Proliferation Assay
(§2) The tumor cell proliferation assay used to test the compounds of the present invention involves a readout called Cell Titer-Glow® Luminescent Cell Viability Assay developed by Promega® (Cunningham, B A “A Growing Issue: Cell Proliferation Assays, Modern kits ease quantification of cell growth” The Scientist 2001, 15(13), 26, and Crouch, S P et al., “The use of ATP bioluminescence as a measure of cell proliferation and cytotoxicity” Journal of Immunological Methods 1993, 160, 81-88), that measures inhibition of cell proliferation. Generation of a luminescent signal corresponds to the amount of ATP present, which is directly proportional to the number of metabolically active (proliferating) cells.
(§3) A431cells (human epidermoid carcinoma, ATCC […]) and BT474 (human breast carcinoma, ATCC […]) were plated at a density of 2.5×10^3 cells/well in 96 well black-clear bottom tissue culture plates in RPMI media with 10% Fetal Bovine Serum and incubated at 37° C. Twenty-four hours later, test compounds are added at a final concentration range from as high […] to as low 64 pM depend on the activities of the tested compounds in serial dilutions at a final DMSO concentration of 0.1%. Cells were incubated for 72 hours at 37° C. in complete growth media after addition of the test compound. After 72 hours of drug exposure, the plates were equilibrated to room temperature for approximately 30 min. Then, using a Promega Cell Titer Glo Luminescent® assay kit, lysis buffer containing 100 microliters of the enzyme luciferase and its substrate, luciferin mixture, was added to each well. The plates were mixed for 2 min on orbital shaker to ensure cell lysis and incubated for 10 min at room temperature to stabilize luminescence signal. The samples were read on VICTOR 2 using Luminescence protocol, and analyzed with Analyze5 software to generate IC50 values.

[2] = system: A431 cells (human epidermoid carcinoma); test: In vitro tumor cell proliferation assay (Cell Titer-Glo luminescent cell viability), A431; format: cell-based; details: A-431, 72 h, 72 hours of drug exposure, ATP luminescence readout, read-out: IC50, anti-proliferative activity (inhibition of cell proliferation)
From the text: as §1, §2, §3

`CC(C)CNC[C@@H](O)Cn1cc2c(n1)CCc1c-2sc2ncnc(Nc3ccc(OCc4cccc(F)c4)c(Cl)c3)c12` [Example 161, (2R)-1-[6-({3-chloro-4-[(3-fluorobenzyl)oxy]phenyl}amino)-4,5-dihydro-2H-pyrimido[5′,4′:4,5]thieno[2,3-e]indazol-2-yl]-3-(isobutylamino)propan-2-ol trifluoroacetate (salt)] was tested, and the IC50 [1] was at most 5 µM and the IC50 [2] was at most 50 µM.

`OC[C@@H]1CCCN1CCn1cc2c(n1)CCc1c-2sc2ncnc(Nc3ccc(F)c(Cl)c3)c12` [Example 32, [(2S)-1-(2-{6-[(3-chloro-4-fluorophenyl)amino]-4,5-dihydro-2H-pyrimido[5′,4′:4,5]thieno[2,3-e]indazol-2-yl}ethyl)pyrrolidin-2-yl]methanol] gave an IC50 [1] of at most 5 µM and an IC50 [2] of at most 5 µM.

`O=C(CCl)N1CCC(n2cc3c(n2)CCc2c-3sc3ncnc(Nc4ccc(OCc5cccc(F)c5)c(Cl)c4)c23)CC1` [Example 218, 2-[1-(chloroacetyl)piperidin-4-yl]-N-{3-chloro-4-[(3-fluorobenzyl)oxy]phenyl}-4,5-dihydro-2H-pyrimido[5′,4′:4,5]thieno[2,3-e]indazol-6-amine] showed an IC50 [1] of at most 1 µM and an IC50 [2] of at most 50 µM.

`O[C@H](CNCCN1CCOCC1)Cn1ncc2c1CCc1c-2sc2ncnc(Nc3ccc(OCc4cccc(F)c4)c(Cl)c3)c12` [Example 165, (2R)-1-[6-({3-chloro-4-[(3-fluorobenzyl)oxy]phenyl}amino)-4,5-dihydro-3H-pyrimido[5′,4′:4,5]thieno[2,3-e]indazol-3-yl]-3-[(2-morpholin-4-ylethyl)amino]propan-2-ol] gave an IC50 [1] of at most 1 µM and an IC50 [2] of at most 50 µM.

`CS(=O)(=O)CCNCCn1cc2c(n1)CCc1c-2sc2ncnc(Nc3ccc(F)c(Cl)c3)c12` [Example 13, N-(3-chloro-4-fluorophenyl)-2-(2-{[2-(methylsulfonyl)ethyl]amino}ethyl)-4,5-dihydro-2H-pyrimido[5′,4′:4,5]thieno[2,3-e]indazol-6-amine] showed an IC50 [1] of at most 5 µM and an IC50 [2] of at most 5 µM.

`CN1CCN(CCn2cc3c(n2)CCc2c-3sc3ncnc(Nc4ccc5nn(Cc6cccc(F)c6)cc5c4)c23)CC1` [Example 327, N-[2-(3-fluorobenzyl)-2H-indazol-5-yl]-2-[2-(4-methylpiperazin-1-yl)ethyl]-4,5-dihydro-2H-pyrimido[5′,4′:4,5]thieno[2,3-e]indazol-6-amine] gave an IC50 [1] of at most 5 µM and an IC50 [2] of at most 5 µM.

For `CC(C)(C)OC(=O)N1CCC(n2cc3c(n2)CCc2c-3sc3ncnc(Nc4ccc(OCc5cccc(F)c5)c(Cl)c4)c23)CC1` [Example 216, tert-butyl 4-[6-({3-chloro-4-[(3-fluorobenzyl)oxy]phenyl}amino)-4,5-dihydro-2H-pyrimido[5′,4′:4,5]thieno[2,3-e]indazol-2-yl]piperidine-1-carboxylate], the IC50 [1] was at most 50 µM and the IC50 [2] was at most 50 µM.

Molecule `O=C(CN1CCOCC1)N1CCC(n2cc3c(n2)CCc2c-3sc3ncnc(Nc4ccc(OCc5cccc(F)c5)c(Cl)c4)c23)CC1` [Example 222, N-{3-chloro-4-[(3-fluorobenzyl)oxy]phenyl}-2-[1-(morpholin-4-ylacetyl)piperidin-4-yl]-4,5-dihydro-2H-pyrimido[5′,4′:4,5]thieno[2,3-e]indazol-6-amine] has an IC50 [1] of at most 1 µM and an IC50 [2] of at most 5 µM.

With `CN1CCN(CC(=O)N2CCC(Cn3cc4c(n3)CCc3c-4sc4ncnc(Nc5ccc(OCc6cccc(F)c6)c(Cl)c5)c34)CC2)CC1` [Example 237] the IC50 [1] was at most 1 µM and the IC50 [2] was at most 5 µM.

Work on `CCOC(=O)N1CCN(C(=O)Cn2ncc3c2CCc2c-3sc3ncnc(Nc4ccc(OCc5cccc(F)c5)c(Cl)c4)c23)CC1` [Example 198, ethyl 4-{[6-({3-chloro-4-[(3-fluorobenzyl)oxy]phenyl}amino)-4,5-dihydro-3H-pyrimido[5′,4′:4,5]thieno[2,3-e]indazol-3-yl]acetyl}piperazine-1-carboxylate] yielded an IC50 [1] of at most 1 µM and an IC50 [2] of at most 50 µM.

In the case of `CN(C)C[C@@H](O)Cn1ncc2c1CCc1c-2sc2ncnc(Nc3ccc(OCc4cccc(F)c4)c(Cl)c3)c12` [Example 171, (2R)-1-[6-({3-chloro-4-[(3-fluorobenzyl)oxy]phenyl}amino)-4,5-dihydro-3H-pyrimido[5′,4′:4,5]thieno[2,3-e]indazol-3-yl]-3-(dimethylamino)propan-2-ol trifluoroacetate (salt)], the IC50 [1] is reported as at most 1 µM and the IC50 [2] is reported as at most 50 µM.

`CN(C)[C@@H]1CCN(CC(=O)N2CCC(n3cc4c(n3)CCc3c-4sc4ncnc(Nc5ccc(OCc6cccc(F)c6)c(Cl)c5)c34)CC2)C1` [Example 219, N-{3-chloro-4-[(3-fluorobenzyl)oxy]phenyl}-2-(1-{[(3R)-3-(dimethylamino)pyrrolidin-1-yl]acetyl}piperidin-4-yl)-4,5-dihydro-2H-pyrimido[5′,4′:4,5]thieno[2,3-e]indazol-6-amine] gave an IC50 [1] of at most 1 µM and an IC50 [2] of at most 5 µM.

In the case of `COCCN(CCOC)CCn1ncc2c1CCc1c-2sc2ncnc(Nc3ccc4c(cnn4Cc4cccc(F)c4)c3)c12` [Example 292, 3-{2-[bis(2-methoxyethyl)amino]ethyl}-N-[1-(3-fluorobenzyl)-1H-indazol-5-yl]-4,5-dihydro-3H-pyrimido[5′,4′:4,5]thieno[2,3-e]indazol-6-amine], the IC50 [1] is reported as at most 1 µM and the IC50 [2] is reported as at most 5 µM.

For `CS(=O)(=O)CCNCCn1ncc2c1CCc1c-2sc2ncnc(Nc3ccc(OCc4cccc(F)c4)c(Cl)c3)c12` [Example 85, N-{3-chloro-4-[(3-fluorobenzyl)oxy]phenyl}-3-(2-{[2-(methylsulfonyl)ethyl]amino}ethyl)-4,5-dihydro-3H-pyrimido[5′,4′:4,5]thieno[2,3-e]indazol-6-amine], the IC50 [1] was at most 1 µM and the IC50 [2] was at most 5 µM.

`OCCn1cc2c(n1)CCc1c-2sc2ncnc(Nc3ccc(F)c(Cl)c3)c12` [Example 1, 2-{6-[(3-chloro-4-fluorophenyl)amino]-4,5-dihydro-2H-pyrimido[5′,4′:4,5]thieno[2,3-e]indazol-2-yl}ethanol] showed an IC50 [1] of at most 1 µM and an IC50 [2] of at most 5 µM.

Work on `Fc1cccc(Cn2ncc3cc(Nc4ncnc5sc6c(c45)CCc4c-6cnn4CCN4CCOCC4)ccc32)c1` [Example 296, N-[1-(3-fluorobenzyl)-1H-indazol-5-yl]-3-(2-morpholin-4-ylethyl)-4,5-dihydro-3H-pyrimido[5′,4′:4,5]thieno[2,3-e]indazol-6-amine] yielded an IC50 [1] of at most 1 µM and an IC50 [2] of at most 5 µM.

`CCCN1CCC(n2cc3c(n2)CCc2c-3sc3ncnc(Nc4ccc(OCc5cccc(F)c5)c(Cl)c4)c23)CC1` [Example 229, N-{3-chloro-4-[(3-fluorobenzyl)oxy]phenyl}-2-(1-propylpiperidin-4-yl)-4,5-dihydro-2H-pyrimido[5′,4′:4,5]thieno[2,3-e]indazol-6-amine] gave an IC50 [1] of at most 1 µM and an IC50 [2] of at most 5 µM.

In the case of `Fc1cccc(COc2ccc(Nc3ncnc4sc5c(c34)CCc3c-5cnn3CCCN3CCCC3)cc2Cl)c1` [Example 272], the IC50 [1] is reported as at most 1 µM and the IC50 [2] is reported as at most 5 µM.

Work on `CN1CCN(CCn2cc3c(n2)CCc2c-3sc3ncnc(Nc4ccc(OCc5ccc(Cl)cc5)c(Cl)c4)c23)CC1` [Example 331, N-{3-chloro-4-[(4-chlorobenzyl)oxy]phenyl}-2-[2-(4-methylpiperazin-1-yl)ethyl]-4,5-dihydro-2H-pyrimido[5′,4′:4,5]thieno[2,3-e]indazol-6-amine] yielded an IC50 [1] of at most 1 µM and an IC50 [2] of at most 5 µM.

Work on `O[C@H](CN1CCSCC1)Cn1cc2c(n1)CCc1c-2sc2ncnc(Nc3ccc(OCc4cccc(F)c4)c(Cl)c3)c12` [Example 139, (2R)-1-[6-({3-chloro-4-[(3-fluorobenzyl)oxy]phenyl}amino)-4,5-dihydro-2H-pyrimido[5′,4′:4,5]thieno[2,3-e]indazol-2-yl]-3-thiomorpholin-4-ylpropan-2-ol] yielded an IC50 [1] of at most 1 µM and an IC50 [2] of at most 50 µM.

Molecule `CC(C)(C)OC(=O)N1CCC(CCn2cc3c(n2)CCc2c-3sc3ncnc(Nc4ccc(OCc5cccc(F)c5)c(Cl)c4)c23)CC1` [Example 246, tert-butyl 4-{2-[6-({3-chloro-4-[(3-fluorobenzyl)oxy]phenyl}amino)-4,5-dihydro-2H-pyrimido[5′,4′:4,5]thieno[2,3-e]indazol-2-yl]ethyl}piperidine-1-carboxylate] has an IC50 [1] of at most 5 µM.

Work on `CN(C)[C@H]1CCN(C[C@@H](O)Cn2cc3c(n2)CCc2c-3sc3ncnc(Nc4ccc(OCc5cccc(F)c5)c(Cl)c4)c23)C1` [Example 153, (2R)-1-[6-({3-chloro-4-[(3-fluorobenzyl)oxy]phenyl}amino)-4,5-dihydro-2H-pyrimido[5′,4′:4,5]thieno[2,3-e]indazol-2-yl]-3-[(3S)-3-(dimethylamino)pyrrolidin-1-yl]propan-2-ol trilfluoroacetate (salt)] yielded an IC50 [1] of at most 1 µM.

`CS(=O)(=O)OCCn1cc2c(n1)CCc1c-2sc2ncnc(Nc3ccc4c(cnn4Cc4ccccc4)c3)c12` [Example 303, 2-{6-[(1-benzyl-1H-indazol-5-yl)amino]-4,5-dihydro-2H-pyrimido[5′,4′:4,5]thieno[2,3-e]indazol-2-yl}ethyl methanesulfonate] was tested, and the IC50 [1] was at most 1 µM.
